The experiment relates to IRF pathway in THP1-Dual™ cells, THP-1 (HAQ). The experiment can be described thus: Reporter gene expression assay in THP-1 cells (THP1-Dual, IRF pathway Lucia luciferase reporter, 2′,3′-cGAMP stimulation). The conditions noted are these: Homo sapiens; THP1-Dual cells preincubated with compound 10 minutes, stimulation with 5 μM 2′,3′-cGAMP for 20 hr, QUANTI-Luc readout of the supernatant; read-out: THP-1 (HAQ) Activity (IC50 value range). It is filed as cell-based, human. In a few lines: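 THP-1-derived THP1-Dual cells (5×10^4) preincubated with compound for 10 minutes, then stimulated with 5 μM 2′,3′-cGAMP. After 20 hr, secreted Lucia luciferase (IRF pathway reporter) measured in supernatant by luminescence.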

The structures appear in SMILES notation.

What is called IC50 is the midpoint of a concentration-inhibition curve. With `O=C(Nc1ccc2c(c1)SCCN2Cc1ccccn1)Nc1c[nH]c2ccccc12` [Example 89, 1-(1H-indol-3-yl)-3-(4-(pyridin-2-ylmethyl)-3,4-dihydro-2H-benzo[b][1,4]thiazin-7-yl)urea], the IC50 was less than 1 µM.
Under `O=C(Nc1ccc2c(c1)N(Cc1cc(F)cc(F)c1)CCO2)Nc1c[nH]c2ccccc12` [Example 90, 1-(4-(3,5-difluorobenzyl)-3,4-dihydro-2H-benzo[b][1,4]oxazin-6-yl)-3-(1H-indol-3-yl)urea] stands less than 1 µM; under `O=C(Nc1ccc2c(c1)N(Cc1cc(F)cc(F)c1)CCO2)Nc1c[nH]c2ccc(F)cc12` [Example 91, 1-(4-(3,5-difluorobenzyl)-3,4-dihydro-2H-benzo[b][1,4]oxazin-6-yl)-3-(5-fluoro-1H-indol-3-yl)urea], less than 1 µM; under `O=C(Nc1ccc2c(c1)N(Cc1cc(F)cc(F)c1)CCS2)Nc1c[nH]c2ccccc12` [Example 92, 1-(4-(3,5-difluorobenzyl)-3,4-dihydro-2H-benzo[b][1,4]thiazin-6-yl)-3-(1H-indol-3-yl)urea], less than 1 µM.
For the molecule `O=C(Nc1ccc2c(c1)N(Cc1cc(F)cc(F)c1)CCS2)Nc1c[nH]c2ccc(F)cc12` [Example 93, 1-(4-(3,5-difluorobenzyl)-3,4-dihydro-2H-benzo[b][1,4]thiazin-6-yl)-3-(5-fluoro-1H-indol-3-yl)urea], the IC50 is less than 1 µM.
As for `CC1CN(Cc2cc(F)cc(F)c2)c2cc(NC(=O)Nc3c[nH]c4ccccc34)ccc2S1` (stereo not drawn) [Example 94, 1-(4-(3,5-difluorobenzyl)-2-methyl-3,4-dihydro-2H-benzo[b][1,4]thiazin-6-yl)-3-(1H-indol-3-yl)urea], the figure is less than 1 µM; as for `NC(=O)c1ccccc1CN1CCSc2cc(NC(=O)Nc3c[nH]c4ccccc34)ccc21` [Example 95, 2-((7-(3-(1H-indol-3-yl)ureido)-2,3-dihydro-4H-benzo[b][1,4]thiazin-4-yl)methyl)benzamide], less than 1 µM; as for `Cc1cc(CN2CCSc3cc(NC(=O)Nc4c[nH]c5ccccc45)ccc32)no1` [Example 96, 1-(1H-indol-3-yl)-3-(4-((5-methylisoxazol-3-yl)methyl)-3,4-dihydro-2H-benzo[b][1,4]thiazin-7-yl)urea], less than 1 µM.
Take `CC1CN(Cc2ccccc2)c2cc(NC(=O)Nc3c[nH]c4ccc(F)cc34)ccc2S1` (stereo not drawn) [Example 97, 1-(4-benzyl-2-methyl-3,4-dihydro-2H-benzo[b][1,4]thiazin-6-yl)-3-(5-fluoro-1H-indol-3-yl)urea]: the IC50 was less than 1 µM.
As for `O=C(Nc1ccc2c(c1)N(Cc1ccccc1)CCS2)Nc1c[nH]c2cc(F)ccc12` [Example 98, 1-(4-benzyl-3,4-dihydro-2H-benzo[b][1,4]thiazin-6-yl)-3-(6-fluoro-1H-indol-3-yl)urea], the figure is less than 1 µM; as for `O=C(Nc1ccc2c(c1)N(Cc1ccccc1)CCS2)Nc1c[nH]c2ccc(F)cc12` [Example 99, 1-(4-benzyl-3,4-dihydro-2H-benzo[b][1,4]thiazin-6-yl)-3-(5-fluoro-1H-indol-3-yl)urea], less than 1 µM; as for `O=C(Nc1ccc2c(c1)N(Cc1ccccc1)CCS2)Nc1c[nH]c2ncc(F)cc12` [Example 100, 1-(4-benzyl-3,4-dihydro-2H-benzo[b][1,4]thiazin-6-yl)-3-(5-fluoro-1H-pyrrolo[2,3-b]pyridin-3-yl)urea], less than 1 µM.
As for `O=C(Nc1ccc2c(c1)N(Cc1cc(F)cc(Cl)c1)CCS2)Nc1c[nH]c2ccc(F)cc12` [Example 101, 1-(4-(3-chloro-5-fluorobenzyl)-3,4-dihydro-2H-benzo[b][1,4]thiazin-6-yl)-3-(5-fluoro-1H-indol-3-yl)urea], the figure is less than 1 µM; as for `Cc1nc(N2CCSc3ccc(NC(=O)Nc4c[nH]c5ccccc45)cc32)ccc1F` [Example 102, 1-(4-(5-Fluoro-6-methylpyridin-2-yl)-3,4-dihydro-2H-benzo[b][1,4]thiazin-6-yl)-3-(1H-indol-3-yl)urea], less than 1 µM.
`O=C(Nc1ccc2c(c1)N(c1ccccc1)CCS2)Nc1c[nH]c2ccccc12` [Example 103, 1-(1H-indol-3-yl)-3-(4-phenyl-3,4-dihydro-2H-benzo[b][1,4]thiazin-6-yl)urea]: the 50% inhibitory concentration (IC50) is less than 1 µM.
Under `O=C(Nc1ccc2c(c1)SCCN2c1ccccc1)Nc1c[nH]c2ccccc12` [Example 104, 1-(1H-indol-3-yl)-3-(4-phenyl-3,4-dihydro-2H-benzo[b][1,4]thiazin-7-yl)urea] stands less than 1 µM; under `O=C(Nc1ccc2c(c1)N(c1ccccn1)CCS2)Nc1c[nH]c2ccccc12` [Example 105, 1-(1H-indol-3-yl)-3-(4-(pyridin-2-yl)-3,4-dihydro-2H-benzo[b][1,4]thiazin-6-yl)urea], less than 1 µM.
For `O=C(Nc1ccc2c(c1)N(c1cccc(F)n1)CCS2)Nc1c[nH]c2ccccc12` [Example 106, 1-(4-(6-fluoropyridin-2-yl)-3,4-dihydro-2H-benzo[b][1,4]thiazin-6-yl)-3-(1H-indol-3-yl)urea], the IC50 was less than 1 µM.
As for `C[C@H]1c2ccc(NC(=O)Nc3c[nH]c4ccccc34)cc2N(Cc2ccccc2)C(=O)N1C` [Example 107, (S)-1-(1-Benzyl-3,4-dimethyl-2-oxo-1,2,3,4-tetrahydroquinazolin-7-yl)-3-(1H-indol-3-yl)urea], the figure is less than 1 µM.
Under `C[C@H]1c2ccc(NC(=O)Nc3c[nH]c4ccccc34)cc2N(Cc2c(F)ccc(O)c2Cl)C(=O)N1C` [Example 108, (S)-1-(1-(2-chloro-6-fluoro-3-hydroxybenzyl)-3,4-dimethyl-2-oxo-1,2,3,4-tetrahydroquinazolin-7-yl)-3-(1H-indol-3-yl)urea] stands 1 to 10 µM.
For the molecule `N#Cc1ccc2[nH]cc(NC(=O)Nc3ccc4c(c3)N(Cc3ccccc3)CCS4)c2c1` [Example 109, 1-(4-benzyl-3,4-dihydro-2H-benzo[b][1,4]thiazin-6-yl)-3-(5-cyano-1H-indol-3-yl)urea], the IC50 was less than 1 µM.
Under `Cc1cc(CN2CCSc3ccc(NC(=O)Nc4c[nH]c5ccc(F)cc45)cc32)on1` [Example 110, 1-(5-fluoro-1H-indol-3-yl)-3-(4-((3-methylisoxazol-5-yl)methyl)-3,4-dihydro-2H-benzo[b][1,4]thiazin-6-yl)urea] stands less than 1 µM.
As for `CC1CN(Cc2cc(F)cc(Cl)c2)c2cc(NC(=O)Nc3c[nH]c4ccc(F)cc34)ccc2S1` (stereo not drawn) [Example 111, 1-(4-(3-chloro-5-fluorobenzyl)-2-methyl-3,4-dihydro-2H-benzo[b][1,4]thiazin-6-yl)-3-(5-fluoro-1H-indol-3-yl)urea], the figure is less than 1 µM; as for `O=C(Nc1ccc2c(c1)N(Cc1ccccc1)C(=O)CS2)Nc1c[nH]c2ccc(Br)cc12` [Example 112, 1-(4-benzyl-3-oxo-3,4-dihydro-2H-benzo[b][1,4]thiazin-6-yl)-3-(5-bromo-1H-indol-3-yl)urea], less than 1 µM.

Source of the values: patent publication US20260159511A1, “SMALL MOLECULE STING ANTAGONISTS” (CURADEV PHARMA PVT. LTD., priority 2021, published 2026).
